Measurements taken from article PMC5078040 (Oncotarget, 2016).

Tests used:
ULK3 = target: T1, ULK3 (Homo sapiens, UniProt Q6PHR2); assay: KinomeScan; format: binding; details: 1uM
T1 construct: purchased DiscoveRx KINOMEscan

MLK3 = target: T2, MLK3 (Homo sapiens, UniProt Q16584); assay: KinomeScan; format: binding; details: 1uM
T2 construct: purchased DiscoveRx KINOMEscan

ALK(L1196M) = target: T3, ALK(L1196M) (Homo sapiens, UniProt Q9UM73, L1196M); assay: KinomeScan; format: binding; details: 1uM
T3 construct: purchased DiscoveRx KINOMEscan

FLT3(D835H) = target: T4, FLT3(D835H) (Homo sapiens, UniProt P36888, D835H); assay: KinomeScan; format: binding; details: 1uM
T4 construct: purchased DiscoveRx KINOMEscan

PI3Kγ = PI3Kγ (Mus musculus, UniProt Q9JHG7); assay: cell-based
Sequence of PI3Kγ (Q9JHG7 whole entry): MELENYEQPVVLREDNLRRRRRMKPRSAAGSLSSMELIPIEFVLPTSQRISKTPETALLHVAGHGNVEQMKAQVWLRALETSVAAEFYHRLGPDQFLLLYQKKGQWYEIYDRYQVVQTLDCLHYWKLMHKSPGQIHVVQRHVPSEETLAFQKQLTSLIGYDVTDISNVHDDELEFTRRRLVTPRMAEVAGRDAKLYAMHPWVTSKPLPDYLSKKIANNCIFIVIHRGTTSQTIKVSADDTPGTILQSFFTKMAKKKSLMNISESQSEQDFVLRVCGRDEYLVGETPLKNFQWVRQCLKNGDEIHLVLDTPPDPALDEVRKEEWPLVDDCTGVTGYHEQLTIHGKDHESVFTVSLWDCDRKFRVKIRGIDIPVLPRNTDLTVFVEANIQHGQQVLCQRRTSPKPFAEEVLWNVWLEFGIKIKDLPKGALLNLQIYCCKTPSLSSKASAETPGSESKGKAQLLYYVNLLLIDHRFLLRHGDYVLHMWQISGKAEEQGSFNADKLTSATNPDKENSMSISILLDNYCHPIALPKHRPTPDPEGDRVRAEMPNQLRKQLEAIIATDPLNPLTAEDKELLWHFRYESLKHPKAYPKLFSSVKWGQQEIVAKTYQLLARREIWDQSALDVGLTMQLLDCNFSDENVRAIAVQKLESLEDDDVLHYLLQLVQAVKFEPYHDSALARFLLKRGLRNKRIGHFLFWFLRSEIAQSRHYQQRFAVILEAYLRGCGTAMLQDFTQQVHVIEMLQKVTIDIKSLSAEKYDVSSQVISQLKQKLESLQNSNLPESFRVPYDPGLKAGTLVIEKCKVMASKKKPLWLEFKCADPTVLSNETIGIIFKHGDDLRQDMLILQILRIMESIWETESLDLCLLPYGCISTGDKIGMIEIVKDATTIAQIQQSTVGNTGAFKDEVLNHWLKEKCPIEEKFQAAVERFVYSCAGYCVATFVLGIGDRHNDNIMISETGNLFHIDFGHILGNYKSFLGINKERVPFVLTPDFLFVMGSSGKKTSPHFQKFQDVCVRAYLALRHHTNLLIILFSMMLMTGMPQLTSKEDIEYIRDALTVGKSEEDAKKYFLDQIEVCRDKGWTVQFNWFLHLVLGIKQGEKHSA

MAP4K5 = target: T5, MAP4K5 (Homo sapiens, UniProt Q9Y4K4); assay: KinomeScan; format: binding; details: 1uM
T5 construct: purchased DiscoveRx KINOMEscan

PAK2 = target: T6, PAK2 (Homo sapiens, UniProt Q13177); assay: KinomeScan; format: binding; details: 1uM
T6 construct: purchased DiscoveRx KINOMEscan

FLT3(N841I) = target: T7, FLT3(N841I) (Homo sapiens, UniProt P36888, N841I); assay: KinomeScan; format: binding; details: 1uM
T7 construct: purchased DiscoveRx KINOMEscan

SRPK3 = target: T8, SRPK3 (Homo sapiens, UniProt Q9UPE1); assay: KinomeScan; format: binding; details: 1uM
T8 construct: purchased DiscoveRx KINOMEscan

RET(V804L) = target: T9, RET(V804L) (Homo sapiens, UniProt P07949, V804L); assay: KinomeScan; format: binding; details: 1uM
T9 construct: purchased DiscoveRx KINOMEscan

[1] = test system: panel of cancer cell lines derived from B-cell malignancies; assay: Anti-proliferative assay (panel summary); format: cell-based; details: Homo sapiens; most of the cell lines including AML, B-cell lymphoma and multiple myeloma cell lines
Method: Cells were grown in 96-well culture plates (3000-4000/well). […] Cell proliferation was determined after treatment with compounds for 72 hours. Cell viability was measured using the CellTiter–Glo Assay Kit (Promega, USA), according to the manufacturer's instructions, and luminescence was measured in a multi-label reader (Envision, PerkinElmer, USA). Data were normalized to control groups (DMSO) and represented by the mean of three independent measurements with standard error <20%. GI50 values were calculated using Prism 5.0 (GraphPad Software, San Diego, CA).

MYLK4 = target: T10, MYLK4 (Homo sapiens, UniProt Q86YV6); assay: KinomeScan; format: binding; details: 1uM
T10 construct: purchased DiscoveRx KINOMEscan

PIK3CA(E542K) = target: T11, PIK3CA(E542K) (Homo sapiens, UniProt P42336, E542K); assay: KinomeScan; format: binding; details: 1uM
T11 construct: purchased DiscoveRx KINOMEscan

FYN = target: T12, FYN (Homo sapiens, UniProt P06241); assay: KinomeScan; format: binding; details: 1uM
T12 construct: purchased DiscoveRx KINOMEscan

NEK5 = target: T13, NEK5 (Homo sapiens, UniProt Q6P3R8); assay: KinomeScan; format: binding; details: 1uM
T13 construct: purchased DiscoveRx KINOMEscan
T13 sequence (Q6P3R8 whole entry): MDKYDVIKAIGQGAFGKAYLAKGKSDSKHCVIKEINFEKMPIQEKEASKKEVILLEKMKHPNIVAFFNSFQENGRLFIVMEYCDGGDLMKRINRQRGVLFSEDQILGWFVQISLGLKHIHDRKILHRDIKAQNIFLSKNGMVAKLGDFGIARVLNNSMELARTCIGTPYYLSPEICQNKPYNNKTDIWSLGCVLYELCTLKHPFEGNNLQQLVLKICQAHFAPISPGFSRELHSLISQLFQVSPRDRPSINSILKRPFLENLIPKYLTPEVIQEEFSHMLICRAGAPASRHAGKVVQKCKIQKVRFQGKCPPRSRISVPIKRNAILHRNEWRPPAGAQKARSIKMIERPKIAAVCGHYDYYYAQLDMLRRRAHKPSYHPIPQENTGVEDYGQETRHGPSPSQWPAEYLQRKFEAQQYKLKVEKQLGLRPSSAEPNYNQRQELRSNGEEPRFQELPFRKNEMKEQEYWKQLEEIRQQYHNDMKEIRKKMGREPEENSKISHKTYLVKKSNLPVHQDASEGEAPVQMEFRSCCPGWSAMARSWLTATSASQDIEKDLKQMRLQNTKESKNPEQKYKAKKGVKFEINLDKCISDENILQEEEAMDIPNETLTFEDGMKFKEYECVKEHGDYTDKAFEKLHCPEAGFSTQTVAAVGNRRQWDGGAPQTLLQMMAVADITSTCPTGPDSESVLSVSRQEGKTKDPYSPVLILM

FER = target: T14, FER (Homo sapiens, UniProt P16591); assay: KinomeScan; format: binding; details: 1uM
T14 construct: purchased DiscoveRx KINOMEscan

PAK7 = target: T15, PAK7 (Homo sapiens, UniProt Q9P286); assay: KinomeScan; format: binding; details: 1uM
T15 construct: purchased DiscoveRx KINOMEscan

MLK2 = target: T16, MLK2 (Homo sapiens, UniProt Q02779); assay: KinomeScan; format: binding; details: 1uM
T16 construct: purchased DiscoveRx KINOMEscan

PIK3CA(M1043I) = target: T17, PIK3CA(M1043I) (Homo sapiens, UniProt P42336, M1043I); assay: KinomeScan; format: binding; details: 1uM
T17 construct: purchased DiscoveRx KINOMEscan

FGFR1 = target: T18, FGFR1 (Homo sapiens, UniProt P11362); assay: KinomeScan; format: binding; details: 1uM
T18 construct: purchased DiscoveRx KINOMEscan
T18 sequence (P11362 22-822): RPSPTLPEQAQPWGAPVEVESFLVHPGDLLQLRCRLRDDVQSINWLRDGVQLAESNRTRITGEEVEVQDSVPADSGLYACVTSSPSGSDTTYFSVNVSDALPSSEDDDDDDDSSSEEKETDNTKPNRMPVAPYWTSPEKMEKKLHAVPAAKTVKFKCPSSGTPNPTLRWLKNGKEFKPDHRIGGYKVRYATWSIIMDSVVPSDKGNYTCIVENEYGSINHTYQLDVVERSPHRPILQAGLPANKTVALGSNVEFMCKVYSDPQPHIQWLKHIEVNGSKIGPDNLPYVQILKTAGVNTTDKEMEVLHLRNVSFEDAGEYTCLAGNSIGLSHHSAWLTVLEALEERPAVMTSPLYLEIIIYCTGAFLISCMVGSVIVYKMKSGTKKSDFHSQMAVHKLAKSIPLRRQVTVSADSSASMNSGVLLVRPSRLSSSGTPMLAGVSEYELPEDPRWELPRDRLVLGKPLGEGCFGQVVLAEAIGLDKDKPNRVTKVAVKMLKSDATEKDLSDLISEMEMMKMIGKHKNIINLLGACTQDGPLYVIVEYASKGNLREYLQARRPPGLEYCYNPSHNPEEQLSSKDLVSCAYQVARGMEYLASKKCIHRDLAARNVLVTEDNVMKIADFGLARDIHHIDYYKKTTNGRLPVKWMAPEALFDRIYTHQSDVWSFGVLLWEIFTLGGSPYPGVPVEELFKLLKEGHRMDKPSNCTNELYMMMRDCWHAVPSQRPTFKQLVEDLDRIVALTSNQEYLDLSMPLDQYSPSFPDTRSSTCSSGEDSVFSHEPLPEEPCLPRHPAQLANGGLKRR

PI4KB = target: T19, PI4KB (Homo sapiens, UniProt Q9UBF8); assay: ADP-glo biochemical assay
T19 construct: purchased Invitrogen
T19 sequence (Q9UBF8 whole entry): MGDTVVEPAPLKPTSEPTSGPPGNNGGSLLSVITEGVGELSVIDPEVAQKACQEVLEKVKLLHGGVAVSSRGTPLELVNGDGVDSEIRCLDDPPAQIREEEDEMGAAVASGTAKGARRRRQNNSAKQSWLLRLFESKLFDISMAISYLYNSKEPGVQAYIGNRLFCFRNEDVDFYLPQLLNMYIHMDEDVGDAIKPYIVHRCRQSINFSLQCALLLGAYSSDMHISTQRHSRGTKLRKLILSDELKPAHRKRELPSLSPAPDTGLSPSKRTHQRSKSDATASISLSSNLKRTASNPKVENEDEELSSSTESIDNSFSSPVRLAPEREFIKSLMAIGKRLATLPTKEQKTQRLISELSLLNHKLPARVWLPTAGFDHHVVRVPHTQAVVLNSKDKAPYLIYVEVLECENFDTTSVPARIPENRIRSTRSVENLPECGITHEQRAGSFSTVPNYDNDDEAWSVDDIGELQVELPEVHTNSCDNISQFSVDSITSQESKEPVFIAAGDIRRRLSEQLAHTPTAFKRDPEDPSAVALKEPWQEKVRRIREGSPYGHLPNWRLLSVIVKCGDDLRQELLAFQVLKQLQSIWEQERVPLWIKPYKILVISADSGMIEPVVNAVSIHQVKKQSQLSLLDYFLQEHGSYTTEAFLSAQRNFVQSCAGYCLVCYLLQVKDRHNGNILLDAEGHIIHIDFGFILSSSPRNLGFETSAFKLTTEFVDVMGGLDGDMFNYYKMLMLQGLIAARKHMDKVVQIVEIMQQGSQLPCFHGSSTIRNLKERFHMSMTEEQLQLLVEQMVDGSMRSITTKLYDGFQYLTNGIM
Method: The reaction in each tube was started immediately by adding ATP and kept going for an hour under 37°C. After the tube cooled for 5 minutes at room temperature, 5 μL solvent reactions were carried out in a 384-well plate. Then 5 μL of ADP-Glo™ reagent was added into each well to stop the reaction and consume the remaining ADP within 40 minutes. At the end, 10 μL of kinase detection reagent was added into the well and incubated for 30 minutes to produce a luminescence signal. Luminescence signal was measured with an automated plate reader (Perkin-Elmer Envision) and each measurement was performed in triplicate.

NLK = target: T20, NLK (Homo sapiens, UniProt Q9UBE8); assay: KinomeScan; format: binding; details: 1uM
T20 construct: purchased DiscoveRx KINOMEscan

TGFBR2 = target: T21, TGFBR2 (Homo sapiens, UniProt P37173); assay: KinomeScan; format: binding; details: 1uM
T21 construct: purchased DiscoveRx KINOMEscan

EPHB3 = target: T22, EPHB3 (Homo sapiens, UniProt P54753); assay: KinomeScan; format: binding; details: 1uM
T22 construct: purchased DiscoveRx KINOMEscan

TYRO3 = target: T23, TYRO3 (Homo sapiens, UniProt Q06418); assay: KinomeScan; format: binding; details: 1uM
T23 construct: purchased DiscoveRx KINOMEscan
T23 sequence (Q06418 41-890): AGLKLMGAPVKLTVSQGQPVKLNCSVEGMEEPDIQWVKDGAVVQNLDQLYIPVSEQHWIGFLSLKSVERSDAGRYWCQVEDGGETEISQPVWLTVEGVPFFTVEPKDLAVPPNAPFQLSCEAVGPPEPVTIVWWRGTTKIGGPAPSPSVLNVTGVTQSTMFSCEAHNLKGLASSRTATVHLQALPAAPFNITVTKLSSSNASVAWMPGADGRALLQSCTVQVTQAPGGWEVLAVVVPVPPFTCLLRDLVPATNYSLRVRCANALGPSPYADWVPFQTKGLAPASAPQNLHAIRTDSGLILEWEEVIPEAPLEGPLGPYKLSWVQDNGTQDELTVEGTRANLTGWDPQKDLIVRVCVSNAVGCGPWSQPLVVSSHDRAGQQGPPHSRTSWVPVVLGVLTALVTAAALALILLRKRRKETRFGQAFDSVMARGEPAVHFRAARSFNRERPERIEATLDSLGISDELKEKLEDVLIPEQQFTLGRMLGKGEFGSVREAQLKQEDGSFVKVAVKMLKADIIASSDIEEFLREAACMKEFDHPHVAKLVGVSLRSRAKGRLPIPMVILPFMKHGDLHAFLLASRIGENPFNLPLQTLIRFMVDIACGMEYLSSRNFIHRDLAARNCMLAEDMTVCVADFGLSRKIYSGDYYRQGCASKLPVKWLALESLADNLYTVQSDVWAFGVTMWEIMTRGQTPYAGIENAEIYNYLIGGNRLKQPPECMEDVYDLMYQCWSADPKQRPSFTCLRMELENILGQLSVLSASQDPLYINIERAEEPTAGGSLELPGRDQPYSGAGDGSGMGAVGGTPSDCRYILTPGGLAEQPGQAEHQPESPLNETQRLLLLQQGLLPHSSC

PIK3CA = target: T24, PIK3CA (Homo sapiens, UniProt P42336); assay: KinomeScan; format: binding; details: 1uM
T24 construct: purchased DiscoveRx KINOMEscan

EGFR(L747-T751del,Sins) = assay: KinomeScan; format: binding; details: 1uM
EPHA7 = target: T25, EPHA7 (Homo sapiens, UniProt Q15375); assay: KinomeScan; format: binding; details: 1uM
T25 construct: purchased DiscoveRx KINOMEscan

SBK1 = target: T26, SBK1 (Homo sapiens, UniProt Q52WX2); assay: KinomeScan; format: binding; details: 1uM
T26 construct: purchased DiscoveRx KINOMEscan

YES = target: T27, YES (Homo sapiens, UniProt P07947); assay: KinomeScan; format: binding; details: 1uM
T27 construct: purchased DiscoveRx KINOMEscan

ADCK4 = target: T28, ADCK4 (Homo sapiens, UniProt Q96D53); assay: KinomeScan; format: binding; details: 1uM
T28 construct: purchased DiscoveRx KINOMEscan
T28 sequence (Q96D53 whole entry): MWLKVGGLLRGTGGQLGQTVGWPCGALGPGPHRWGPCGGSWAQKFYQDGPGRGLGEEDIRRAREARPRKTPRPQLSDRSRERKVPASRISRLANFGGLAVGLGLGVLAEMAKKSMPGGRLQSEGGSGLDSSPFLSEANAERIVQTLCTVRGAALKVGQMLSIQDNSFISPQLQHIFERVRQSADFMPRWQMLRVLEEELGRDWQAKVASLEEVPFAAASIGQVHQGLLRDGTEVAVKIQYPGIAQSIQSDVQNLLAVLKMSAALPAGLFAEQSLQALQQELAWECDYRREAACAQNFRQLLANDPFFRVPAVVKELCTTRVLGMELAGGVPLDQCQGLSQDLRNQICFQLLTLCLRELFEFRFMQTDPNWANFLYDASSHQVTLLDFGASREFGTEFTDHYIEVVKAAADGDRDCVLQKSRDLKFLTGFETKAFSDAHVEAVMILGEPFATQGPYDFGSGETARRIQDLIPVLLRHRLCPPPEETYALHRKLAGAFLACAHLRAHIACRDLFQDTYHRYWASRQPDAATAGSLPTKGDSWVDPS

PLK4 = target: T29, PLK4 (Homo sapiens, UniProt O00444); assay: KinomeScan; format: binding; details: 1uM
T29 construct: purchased DiscoveRx KINOMEscan

S6K phosphorylation = assay: Signaling pathway effect examination (western blotting); format: cell-based, human; design: dose or concentration left out as unconfirmed; details: MOLM13, HT, Namalwa, MEC-1, MEC-2 cells
Method: The cells were collected and lysed, and cell lysates were analyzed by western blotting.

MAP4K3 = target: T30, MAP4K3 (Homo sapiens, UniProt Q8IVH8); assay: KinomeScan; format: binding; details: 1uM
T30 construct: purchased DiscoveRx KINOMEscan

GRK7 = target: T31, GRK7 (Homo sapiens, UniProt Q8WTQ7); assay: KinomeScan; format: binding; details: 1uM
T31 construct: purchased DiscoveRx KINOMEscan

TLK1 = target: T32, TLK1 (Homo sapiens, UniProt Q9UKI8); assay: KinomeScan; format: binding; details: 1uM
T32 construct: purchased DiscoveRx KINOMEscan

PKAC-alpha = target: T33, PKAC-alpha (Homo sapiens, UniProt P17612); assay: KinomeScan; format: binding; details: 1uM
T33 construct: purchased DiscoveRx KINOMEscan

PIK3CA(Q546K) = target: T34, PIK3CA(Q546K) (Homo sapiens, UniProt P42336, Q546K); assay: KinomeScan; format: binding; details: 1uM
T34 construct: purchased DiscoveRx KINOMEscan

TAK1 = target: T35, TAK1 (Homo sapiens, UniProt O43318); assay: KinomeScan; format: binding; details: 1uM
T35 construct: purchased DiscoveRx KINOMEscan

Cc1nc(NC(=O)[C@@H](N)C(C)C)sc1-c1cnc(Cl)c(NS(=O)(=O)c2ccccc2)c1 [PI3KD-IN-015]
KinomeScan ULK3 (ULK3): 88 | KinomeScan MLK3 (MLK3): 100 | KinomeScan ALK(L1196M) (ALK(L1196M)): 100 | KinomeScan FLT3(D835H) (FLT3(D835H)): 94 | EC50 (PI3Kγ): > 3000 nM | KinomeScan MAP4K5 (MAP4K5): 100 | KinomeScan PAK2 (PAK2): 89 | KinomeScan FLT3(N841I) (FLT3(N841I)): 87 | KinomeScan SRPK3 (SRPK3): 100 | KinomeScan RET(V804L) (RET(V804L)): 97 | GI50 [1]: 1000 to 10000 nM | KinomeScan MYLK4 (MYLK4): 80 | KinomeScan PIK3CA(E542K) (PIK3CA(E542K)): 5.4 | KinomeScan FYN (FYN): 100 | KinomeScan NEK5 (NEK5): 100 | KinomeScan FER (FER): 89 | KinomeScan PAK7 (PAK7): 89 | KinomeScan MLK2 (MLK2): 89 | KinomeScan PIK3CA(M1043I) (PIK3CA(M1043I)): 0 | KinomeScan FGFR1 (FGFR1): 100 | IC50 (PI4KB): 172 nM | KinomeScan NLK (NLK): 92 | KinomeScan TGFBR2 (TGFBR2): 100 | KinomeScan EPHB3 (EPHB3): 100 | KinomeScan TYRO3 (TYRO3): 100 | KinomeScan PIK3CA (PIK3CA): 7.2 | KinomeScan EGFR(L747-T751del,Sins) (EGFR(L747-T751del,Sins)): 100 | KinomeScan EPHA7 (EPHA7): 100 | KinomeScan SBK1 (SBK1): 66 | KinomeScan YES (YES): 100 | KinomeScan ADCK4 (ADCK4): 95 | KinomeScan PLK4 (PLK4): 99 | S6K phosphorylation (S6K phosphorylation): significantly decreased | KinomeScan MAP4K3 (MAP4K3): 91 | KinomeScan GRK7 (GRK7): 97 | KinomeScan TLK1 (TLK1): 79 | KinomeScan PKAC-alpha (PKAC-alpha): 96 | KinomeScan PIK3CA(Q546K) (PIK3CA(Q546K)): 4.1 | KinomeScan TAK1 (TAK1): 100
